Values joined by “and” are separate entries in the source; they are usually repeats but may differ in a detail not shown here. Equal entries are not always repeated.
Legend:
[1] = biological target: T1, Beta-galactoside alpha-2,6-sialyltransferase 1 (Homo sapiens) (UniProt P15907); test: Ratio of CMP-Neu5Ac Km to compound Ki for human recombinant ST6Gal-1
T1 sequence (whole entry): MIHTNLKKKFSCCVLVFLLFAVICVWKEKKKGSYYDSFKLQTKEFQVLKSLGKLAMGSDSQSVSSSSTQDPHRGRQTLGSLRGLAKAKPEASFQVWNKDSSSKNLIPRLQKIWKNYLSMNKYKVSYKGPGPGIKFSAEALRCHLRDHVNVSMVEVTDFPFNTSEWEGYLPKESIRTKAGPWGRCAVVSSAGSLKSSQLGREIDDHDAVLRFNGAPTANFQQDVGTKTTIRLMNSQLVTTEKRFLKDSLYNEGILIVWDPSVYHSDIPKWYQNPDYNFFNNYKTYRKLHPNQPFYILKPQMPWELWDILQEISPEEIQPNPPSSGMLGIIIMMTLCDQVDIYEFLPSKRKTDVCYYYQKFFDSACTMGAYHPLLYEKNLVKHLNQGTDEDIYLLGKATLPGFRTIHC

[2] = biological target: T1, Beta-galactoside alpha-2,6-sialyltransferase 1 (Homo sapiens); test: Inhibition of human recombinant ST6Gal-1 assessed as trisaccharide formation using CMP-Neu5Ac and p-nitrophenyl LacNAc as donar and acceptor at 10 uM by RP-HPLC analysis
[3] = biological target: T2, Beta-galactoside alpha-2,6-sialyltransferase 1 (Homo sapiens, UniProt P15907); test: Competitive inhibition of human recombinant ST6Gal-1 using CMP-Neu5Ac and p-nitrophenyl LacNAc as donar and acceptor by Lineweaver-Burk double reciprocal plot analysis
T2 sequence (P15907 whole entry): T1 sequence (whole entry)

[4] = Inhibition of rat alpha-2,6-sialyltransferase

Row | Structure (SMILES) | Ratio [1] | inhibition [2] | Ki [3] [nM] | Ki [4] [nM]
1 | CC(=O)NC[C@@H]1C[C@@H](C(OP(=O)(O)OC[C@H]2O[C@@H](n3ccc(N)nc3=O)[C@H](O)[C@@H]2O)P(=O)(O)O)C[C@H]1OCc1ccccc1 (stereo partly drawn) | 48.1 | 46.3% and 70.8% | 865 | 
2 | Nc1ccn([C@@H]2O[C@H](COP(=O)(O)OC(c3cccc(Oc4ccccc4)c3)P(=O)(O)O)[C@@H](O)[C@H]2O)c(=O)n1 (stereo partly drawn) | 2190 | 98.1% | 19 | 
3 | CC(=O)N[C@H]1[C@H](Oc2ccccc2)OC(C(OP(=O)(O)OC[C@H]2O[C@@H](n3ccc(N)nc3=O)[C@H](O)[C@@H]2O)P(=O)(O)O)=C[C@@H]1O (stereo partly drawn) |  |  |  | 29
4 | Nc1ccn([C@@H]2O[C@H](COP(=O)(O)OC(C3CCCC3)P(=O)(O)O)[C@@H](O)[C@H]2O)c(=O)n1 (stereo in doubt; 2l) |  | 12.8% |  | 
5 | Nc1ccn([C@@H]2O[C@H](COP(=O)(O)OC(C3CCCC3)P(=O)(O)O)[C@@H](O)[C@H]2O)c(=O)n1 (stereo in doubt; 2s) [listing 1 of 2 here] |  |  | 5850 | 
6 | Nc1ccn([C@@H]2O[C@H](COP(=O)(O)OC(C3CCCC3)P(=O)(O)O)[C@@H](O)[C@H]2O)c(=O)n1 (stereo in doubt; 2s) [listing 2 of 2 here] | 7.1 | 43.2% |  | 
7 | Nc1ccn([C@@H]2O[C@H](COP(=O)(O)OC([C@H]3C[C@@H](O)[C@@H](O)C3)P(=O)(O)O)[C@@H](O)[C@H]2O)c(=O)n1 (stereo in doubt; 3l) |  | 13% |  | 
8 | Nc1ccn([C@@H]2O[C@H](COP(=O)(O)OC([C@H]3C[C@@H](O)[C@@H](O)C3)P(=O)(O)O)[C@@H](O)[C@H]2O)c(=O)n1 (stereo in doubt; 3s) |  | 31% |  | 
9 | CC(=O)N[C@H]1C[C@H](C(OP(=O)(O)OC[C@H]2O[C@@H](n3ccc(N)nc3=O)[C@H](O)[C@@H]2O)P(=O)(O)O)C[C@H]1O (stereo in doubt; 4Sl) |  | 9.99% |  | 
10 | CC(=O)N[C@H]1C[C@H](C(OP(=O)(O)OC[C@H]2O[C@@H](n3ccc(N)nc3=O)[C@H](O)[C@@H]2O)P(=O)(O)O)C[C@H]1O (stereo in doubt; 4Ss) [listing 1 of 2 here] |  |  | 4310 | 
11 | CC(=O)N[C@H]1C[C@H](C(OP(=O)(O)OC[C@H]2O[C@@H](n3ccc(N)nc3=O)[C@H](O)[C@@H]2O)P(=O)(O)O)C[C@H]1O (stereo in doubt; 4Ss) [listing 2 of 2 here] | 9.6 | 50.3% |  | 
12 | CC(=O)N[C@H]1C[C@@H](C(OP(=O)(O)OC[C@H]2O[C@@H](n3ccc(N)nc3=O)[C@H](O)[C@@H]2O)P(=O)(O)O)C[C@H]1OCc1ccccc1 (stereo in doubt; 5Rl) |  | 22.1% |  | 
13 | CC(=O)N[C@H]1C[C@@H](C(OP(=O)(O)OC[C@H]2O[C@@H](n3ccc(N)nc3=O)[C@H](O)[C@@H]2O)P(=O)(O)O)C[C@H]1OCc1ccccc1 (stereo in doubt; 5Rs) [listing 1 of 2 here] |  |  | 1510 | 
14 | CC(=O)N[C@H]1C[C@@H](C(OP(=O)(O)OC[C@H]2O[C@@H](n3ccc(N)nc3=O)[C@H](O)[C@@H]2O)P(=O)(O)O)C[C@H]1OCc1ccccc1 (stereo in doubt; 5Rs) [listing 2 of 2 here] | 27.6 | 65.9% |  | 
15 | CC(=O)N[C@H]1C[C@H](C(OP(=O)(O)OC[C@H]2O[C@@H](n3ccc(N)nc3=O)[C@H](O)[C@@H]2O)P(=O)(O)O)C[C@H]1OCc1ccccc1 (stereo in doubt; 5Sl) [listing 1 of 2 here] |  |  | 436 | 
16 | CC(=O)N[C@H]1C[C@H](C(OP(=O)(O)OC[C@H]2O[C@@H](n3ccc(N)nc3=O)[C@H](O)[C@@H]2O)P(=O)(O)O)C[C@H]1OCc1ccccc1 (stereo in doubt; 5Sl) [listing 2 of 2 here] | 95.5 | 75.3% |  | 
17 | CC(=O)N[C@H]1C[C@H](C(OP(=O)(O)OC[C@H]2O[C@@H](n3ccc(N)nc3=O)[C@H](O)[C@@H]2O)P(=O)(O)O)C[C@H]1OCc1ccccc1 (stereo in doubt; 5Ss) [listing 1 of 2 here] |  |  | 1630 | 
18 | CC(=O)N[C@H]1C[C@H](C(OP(=O)(O)OC[C@H]2O[C@@H](n3ccc(N)nc3=O)[C@H](O)[C@@H]2O)P(=O)(O)O)C[C@H]1OCc1ccccc1 (stereo in doubt; 5Ss) [listing 2 of 2 here] | 25.6 | 63.9% |  | 
19 | CC(=O)NC[C@@H]1CCC(OP(=O)(O)OC[C@H]2O[C@@H](n3ccc(N)nc3=O)[C@H](O)[C@@H]2O)(P(=O)(O)O)[C@H]1OCc1ccccc1 (stereo in doubt; 48l) [listing 1 of 2 here] |  |  | 28 | 
20 | CC(=O)NC[C@@H]1CCC(OP(=O)(O)OC[C@H]2O[C@@H](n3ccc(N)nc3=O)[C@H](O)[C@@H]2O)(P(=O)(O)O)[C@H]1OCc1ccccc1 (stereo in doubt; 48l) [listing 2 of 2 here] | 1490 | 97.5% |  | 
21 | CC(=O)NC[C@@H]1CCC(OP(=O)(O)OC[C@H]2O[C@@H](n3ccc(N)nc3=O)[C@H](O)[C@@H]2O)(P(=O)(O)O)[C@H]1OCc1ccccc1 (stereo in doubt; 48s) [listing 1 of 2 here] |  |  | 477 | 
22 | CC(=O)NC[C@@H]1CCC(OP(=O)(O)OC[C@H]2O[C@@H](n3ccc(N)nc3=O)[C@H](O)[C@@H]2O)(P(=O)(O)O)[C@H]1OCc1ccccc1 (stereo in doubt; 48s) [listing 2 of 2 here] | 87.3 | 74.1% |  | 

— ChEMBL document CHEMBL3627711, “Highly Substituted Cyclopentane-CMP Conjugates as Potent Sialyltransferase Inhibitors” (J Med Chem, 2015)
